Consider nine compounds from US20230077362A1 (CORTEVA AGRISCIENCE LLC, priority 2019, published 2023).

SMILES strings stand for the structures. Read-outs that look alike come from different tables or passages of the source.

Assay [1] concerns Beet Armyworm (Spodoptera exigua) ("BAW"), second instar larvae. As to the kind of experiment: Bioassay on beet armyworm (BAW), 128-well diet tray assay. Type of assay: in vivo. The following applies: for pest or weed control at 50 µg/cm2: Spodoptera exigua. A digest of the protocol: (§1)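 Each value represents average percent mortality from eight wells. Larvae were kept in clear-covered trays at 25° C. for five to seven days on a 14-hour light, 10-hour dark schedule before scoring.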

Assay [2] has as its system Cabbage Looper (Trichoplusia ni) ("CL"), second instar larvae. As to the kind of experiment: Bioassay on cabbage looper (CL), 128-well diet tray assay. In kind it is in vivo. The following applies: for pest or weed control at 50 µg/cm2: Trichoplusia ni. In short, it runs like this:
as §1

Where [3] appears, read: read-out: BAW (Biological Results, rating).
The mark [4] stands for this setting: read-out: CL (Biological Results, rating).

As to `O=C(/N=C1\SCC(=O)N1c1ccccc1N1CCCCC1)Nc1ccc(-c2ncn(-c3ccc(OC(F)(F)F)cc3)n2)cc1F` [Compound J198, (Z)-1-(2-Fluoro-4-(1-(4-(trifluoromethoxy)phenyl)-1H-1,2,4-triazol-3-yl)phenyl)-3-(4-oxo-3-(2-(piperidin-1-yl)phenyl)thiazolidin-2-ylidene)urea], the pest or weed control at 50 µg/cm2 in assay [1] (setting [3]) and in assay [2] (setting [4]) was 50 to 100% each time.
As for `Cc1ccc(COCC(F)(F)F)c(N2C(=O)CS/C2=N\C(=O)Nc2ccc(-c3ncn(-c4ccc(OC(F)(F)F)cn4)n3)cc2F)c1` [Compound J237, (Z)-1-(2-Fluoro-4-(1-(5-(trifluoromethoxy)pyridin-2-yl)-1H-1,2,4-triazol-3-yl)phenyl)-3-(3-(5-methyl-2-((2,2,2-trifluoroethoxy)methyl)phenyl)-4-oxothiazolidin-2-ylidene)urea], the pest or weed control at 50 µg/cm2 in assay [1] (setting [3]) and in assay [2] (setting [4]) was 50 to 100% each time.
Turning to `CC(C)c1ccc(N(C)C)cc1N1C(=O)CS/C1=N\C(=O)Nc1ccc(-c2ncn(-c3ccc(S(F)(F)(F)(F)F)cc3)n2)cc1C#N` [Compound J585], in assay [1] (Table ABC, species BAW, C = not tested, D = no activity noticed), the BAW rating result was “A (50-100)”. Besides, the CL rating entry in assay [2] (Table ABC, species CL, C = not tested, D = no activity noticed) is given as “A (50-100)”.
Consider `COCc1ccc(C)cc1N1C(=O)CS/C1=N\C(=O)Nc1ccc(-c2cn(-c3ccc(S(F)(F)(F)(F)F)cc3)cn2)cc1F` [Compound J592, (Z)-1-(2-Fluoro-4-(1-(4-(pentafluoro-λ^6-sulfaneyl)phenyl)-1H-imidazol-4-yl)phenyl)-3-(3-(2-(methoxymethyl)-5-methylphenyl)-4-oxothiazolidin-2-ylidene)urea], for which the pest or weed control at 50 µg/cm2 in assay [1] (read-out: BAW rating) and in assay [2] (read-out: CL rating) was 50 to 100% in each case.
For `COCc1ccc(C)cc1N1C(=O)CS/C1=N\C(=O)Nc1ccc(-c2ncn(-c3ccc(C(F)F)cn3)n2)cc1F` [Compound J345], the “BAW (Biological Results, rating)” value in assay [1] (Beet Armyworm (Spodoptera exigua), C = Not Tested) is listed as “A (50-100)”. In addition, in assay [2] (Cabbage Looper (Trichoplusia ni), C = Not Tested), the “CL (Biological Results, rating)” value is “A (50-100)”.
On to `Cc1ccc(C(C)C)c(N2C(=O)CS/C2=N\C(=O)Nc2ccc(-c3cn(-c4ccc(S(F)(F)(F)(F)F)cc4)cn3)cc2F)c1` [Compound J589, (Z)-1-(2-fluoro-4-(1-(4-(pentafluoro-λ^6-sulfaneyl)phenyl)-1H-imidazol-4-yl)phenyl)-3-(3-(2-isopropyl-5-methylphenyl)-4-oxothiazolidin-2-ylidene)urea], for which the pest or weed control at 50 µg/cm2 in assay [1] (read-out: BAW rating) and in assay [2] (read-out: CL rating) was 50 to 100% throughout.
Turning to `CC(C)c1ccc(N(C)C)cc1N1C(=O)CS/C1=N\C(=O)Nc1ccc(-c2ncn(-c3cccc(OC(F)(F)F)c3)n2)cc1` [Compound J329, (Z)-1-(3-(5-(Dimethylamino)-2-isopropylphenyl)-4-oxothiazolidin-2-ylidene)-3-(4-(1-(3-(trifluoromethoxy)phenyl)-1H-1,2,4-triazol-3-yl)phenyl)urea], the pest or weed control at 50 µg/cm2 in assay [1] (setting [3]) and in assay [2] (setting [4]) was 50 to 100% each time.
Consider `Cc1ccc(C(C)C)c(N2C(=O)CS/C2=N\C(=O)Nc2ccc(-n3cnc(-c4ccc(OC(F)(F)F)cc4)n3)cc2C)c1` [Compound J466, (Z)-1-(3-(2-Isopropyl-5-methylphenyl)-4-oxothiazolidin-2-ylidene)-3-(2-methyl-4-(3-(4-(trifluoromethoxy)phenyl)-1H-1,2,4-triazol-1-yl)phenyl)urea], for which the pest or weed control at 50 µg/cm2 in assay [1] (read-out: BAW rating) and in assay [2] (read-out: CL rating) was 50 to 100% each time.
Take `CCC(C)c1ccc(OC)cc1N1C(=O)CS/C1=N\C(=O)Nc1ccc(-c2ncn(-c3ccc(OC(F)(F)F)cc3)n2)cc1F` (stereo not drawn) [Compound J48, (Z)-1-(3-(2-(sec-Butyl)-5-methoxyphenyl)-4-oxothiazolidin-2-ylidene)-3-(2-fluoro-4-(1-(4-(trifluoromethoxy)phenyl)-1H-1,2,4-triazol-3-yl)phenyl)urea]: the pest or weed control at 50 µg/cm2 in assay [1] (setting [3]) and in assay [2] (setting [4]) was 50 to 100% in each case.
